The source of these data is patent US20100316655A1, “COMPOUNDS WITH MDR1-INVERSE ACTIVITY” (priority 2008, published 2010).

Assay [1] deals with KB-3-1 adenocarcinoma cells. Put plainly: MTT cytotoxicity assay, parental P-gp-negative KB-3-1 cells. The format is cell-based, human. The protocol: (§1) Exemplary compounds were also tested against the KB-V1 adenocarcinoma cell line that expresses high levels of P-gp (the protein product of MDR1). […] MDR1 selectivity is determined by the ratio of IC50 against KB-3-1 cells divided by its IC50 against KB-V1 cells.
(§2) This example describes evaluation of compounds using the MTT cytotoxicity assay. Cell survival was measured by the MTT (3-(4,5-dimethylthiazol-2-yl)-2,5-diphenyltetrazolium bromide) assay as previously described by Ludwig, J. A. et al. Selective toxicity of NSC73306 in MDR1-positive cells as a new strategy to circumvent multidrug resistance in cancer. […] Briefly, cells were seeded in […] of growth medium at a density of 5000 cells/well in 96-well plates and allowed to establish for 24 hours, at which time serially diluted drugs were added in an additional […] growth medium. Cells were then incubated for 72 hours at 37° C. in humidified 5% CO2, at which time the growth media was drawn, and replaced with MTT in IMDM growth media and incubated for 4 hours. The MTT solution was then drawn from the wells, and […] acidified ethanol solution was added to each well and after 15 minutes absorption at 560 nm was measured.

Assay [2] relates to KB-V1 adenocarcinoma cell line. As to the kind of experiment: MTT cytotoxicity assay, P-gp (MDR1) expressing KB-V1 cells; MDR1 selectivity vs KB-3-1. The format is cell-based, human. To be noted: for IC50: MTT, 72 hours; for MDR1 select. / MDR1 selectivity: ratio of IC50 against KB-3-1 divided by IC50 against KB-V1; for MDR1 selectivity: >1 = MDR1-inverse activity; for MDR1-inverse selectivity (in words): Example 3, Table 1, KB-V1 vs KB-3-1. The protocol:
as §1, §2
For orientation: Tetrazolium assays rely on reduction of a dye to a coloured formazan, in cell work by metabolically active cells.

The mark [3] stands for this setting: Table 2, 72 hours, unit inferred.
[4] abbreviates: Homo sapiens, Table 1, 72 hours, KB-3-1 (P-gp-negative).
The mark [5] stands for this setting: Homo sapiens, Table 1, KB-V1 (high P-gp).
Where [6] appears, read: Homo sapiens, KB 3-1, Table 2, 72 hours, unit inferred.
[7] abbreviates: Homo sapiens, KB-V1, Table 2, unit inferred.

The term IC50 denotes the midpoint of a concentration-inhibition curve.

Turning to `CC(C)NC(=S)NN=C1C(=O)Nc2ccccc21` [Compound M15, 1-Isatin-4-isopropyl-3-thiosemicarbazone], the IC50 in assay [1] (setting [3]) came out at 39.4 µM; in assay [2] (Table 2, unit inferred), 10.2 µM. For the same molecule, the MDR1 select. in assay [2] (Table 2) came out at 3.84.

With `NC(=S)N/N=C/c1ncccc1N`, the IC50 in assay [1] (setting [4]) was found to be 1.4 ± 2.5 µM; in assay [2] (setting [5]) it was 5.9 ± 2.6 µM. Moreover, the MDR1 selectivity in assay [2] (Table 1) came to 0.2.

`CCCCNC(=S)NN=C1C(=O)Nc2ccccc21` [Compound M11, 1-Isatin-4-butyl-3-thiosemicarbazone]: the IC50 in assay [1] (setting [3]) was found to be 10.9 µM; in assay [2] (Table 2, unit inferred), 5.69 µM. In addition, the MDR1 select. in assay [2] (Table 2) turned out to be 1.91.

With `O=C1Nc2ccc(Br)cc2/C1=N/NC(=S)Nc1ccc([N+](=O)[O-])cc1` [drawing 23], the IC50 in assay [1] (setting [4]) came out at 28.4 ± 5.2 µM; in assay [2] (setting [5]), 4 ± 0.6 µM. In addition, the MDR1 selectivity in assay [2] (Table 1) turned out to be 7.1.

In the case of `NC(=S)N/N=C1\C(=O)Nc2ccccc21`, the half-inhibitory concentration (IC50) in assay [1] (setting [4]) and in assay [2] (setting [5]) was over 50 µM in each case.

With `COc1ccc(NC(=S)N/N=C2\C(=O)N(C)c3ccccc32)cc1` [drawing 35], the IC50 in assay [1] (setting [4]) was 19.6 ± 1.7 µM; in assay [2] (setting [5]), 9.3 ± 2.8 µM. Besides, in assay [2] (Table 1), the MDR1 selectivity was determined as 2.1.

On to `Cc1ccc(NC(=S)N/N=C2\C(=O)Nc3ccccc32)cc1` [Compound M16, 1-Isatin-4-(4′-methylphenyl)thiosemicarbazone], for which the IC50 in assay [1] (setting [6]) was 24 µM; in assay [2] (setting [7]), 2.6 µM. Moreover, the MDR1 select. in assay [2] (Table 2) came to 9.23.

Consider `COc1ccc(NC(=S)NN=C2Cc3ccccc3C2)cc1`, for which the IC50 in assay [1] (setting [4]) and in assay [2] (setting [5]) was over 50 µM each time.

In the case of `O=C1Nc2ccccc2C1=NNC(=S)NC12CC3CC(CC(C3)C1)C2` [Compound M22, 1-isatin-4-(1′-adamantyl)-3-thiosemicarbazone], the IC50 in assay [1] (setting [3]) worked out at 3.16 µM; in assay [2] (Table 2, unit inferred), 1.02 µM. The MDR1 select. in assay [2] (Table 2) came out at 3.09.

Turning to `CC(=O)Nc1ccc(/C=N/NC(N)=S)cc1`, the IC50 in assay [1] (setting [4]) and in assay [2] (setting [5]) was over 50 µM throughout.

Regarding `COc1ccc(NC(=S)N/N=C/c2ccccn2)cc1` [Compound 10, 1-(2′-Pyridinecarboxaldehyde)-4-(4′-methoxyphenyl)-3-thiosemicarbazone], the “MDR1-inverse selectivity (in words)” value in assay [2] is given as “MDR1-inverse selectivity”.

Turning to `O=C1Nc2ccccc2C1=NNC(=S)Nc1ccc(Oc2ccccc2)cc1` [Compound M21, 1-Isatin-4-(4-phenoxybenzene)-3-thiosemicarbazone], the IC50 in assay [1] (setting [3]) came to 5.72 µM; in assay [2] (Table 2, unit inferred), 1.67 µM. Also, the MDR1 select. in assay [2] (Table 2) was 3.44.

`C=CCNC(=S)N/N=C1\C(=O)Nc2ccccc21` [drawing 40]: the IC50 in assay [1] (setting [4]) amounted to 26.1 ± 2.6 µM; in assay [2] (setting [5]) it was 20.7 ± 7.7 µM. For the same molecule, in assay [2] (Table 1), the MDR1 selectivity worked out at 1.3.

Turning to `O=C1Nc2ccccc2C1=NNC(=S)Nc1ccc(O)cc1` [Compound M4, 1-Isatin-(4′-hydroxyphenyl)-3-thiosemicarbazone], the IC50 came out at 35.8 µM in assay [1] (setting [3]) and 21.6 µM in assay [2] (Table 2, unit inferred). Also, in assay [2] (Table 2), the MDR1 select. is listed as 1.66.

For `CNC(=S)NN=C1C(=O)Nc2ccccc21` [Compound M1, 1-Isatin-4-methyl-3-thiosemicarbazone], the IC50 turned out to be 35.3 µM in assay [1] (setting [3]) and 19.4 µM in assay [2] (Table 2, unit inferred). In assay [2] (Table 2), the MDR1 select. came out at 1.82.

`O=C1Nc2ccc(F)cc2/C1=N/NC(=S)Nc1ccc(F)cc1` [Compound M10, 1-(5′-fluoroisatin)-4-(4′-fluorophenyl)-3-thiosemicarbazone]: the IC50 in assay [1] (setting [6]) amounted to 3.72 µM; in assay [2] (setting [7]) it was 0.91 µM. In addition, the MDR1 select. in assay [2] (Table 2) is 4.07.

As for `COc1ccc(NC(=S)N/N=C2\C(=O)Nc3c2ccc2ccccc32)cc1`, the IC50 came to 4.4 ± 3.6 µM in assay [1] (setting [4]) and 30.3 ± 5.9 µM in assay [2] (setting [5]). In assay [2] (Table 1), the MDR1 selectivity turned out to be 0.1.

For `CN(C)c1ccc(NC(=S)NN=C2C(=O)Nc3ccccc32)cc1` [Compound M3, 1-Isatin-4-(4′-(dimethylamino)phenyl)-3-thiosemicarbazone], the IC50 in assay [1] (setting [3]) was found to be 6.95 µM; in assay [2] (Table 2, unit inferred) it was 2.23 µM. Besides, the MDR1 select. in assay [2] (Table 2) is recorded as 2.99.

Turning to `COc1cc(NC(=S)NN=C2C(=O)Nc3ccccc32)cc(OC)c1OC` [Compound M23, 1-isatin-4-(3′,4′,5′-trimethoxyphenyl)-3-thiosemicarbazone], the IC50 in assay [1] (setting [3]) worked out at 11.1 µM; in assay [2] (Table 2, unit inferred), 3.49 µM. Moreover, the MDR1 select. in assay [2] (Table 2) is 3.18.

Consider `COc1ccc(NC(=S)N/N=C2\C(=O)Nc3ccc(F)cc32)cc1` [drawing 34], for which the IC50 in assay [1] (setting [4]) worked out at 39.3 ± 23.3 µM; in assay [2] (setting [5]), 5.2 ± 1.1 µM. Moreover, the MDR1 selectivity in assay [2] (Table 1) was determined as 7.5.

As to `COc1ccc(NC(=S)N/N=C2\CCc3ccccc32)cc1`, the IC50 in assay [1] (setting [4]) and in assay [2] (setting [5]) was over 50 µM in each case.

With `O=C1Nc2ccccc2/C1=N/NC(=S)Nc1ccc(F)cc1` [Compound M14, 1-Isatin-4-(4′-fluorophenyl)thiosemicarbazone], the values for the IC50 in assay [1] (setting [6]) and in assay [2] (setting [7]) were 14.2 µM and 1.92 µM, respectively. The MDR1 select. in assay [2] (Table 2) worked out at 7.36.

`Cc1cnc(/C=N/NC(N)=S)c2cccc(N)c12`: the IC50 was found to be 1.9 ± 0.8 µM in assay [1] (setting [4]) and 2.1 ± 0.3 µM in assay [2] (setting [5]). The MDR1 selectivity in assay [2] (Table 1) is recorded as 0.9.

In the case of `NC(=O)N/N=C1\C(=O)Nc2ccccc21`, the IC50 in assay [1] (setting [4]) and in assay [2] (setting [5]) was over 50 µM each time.

As for `O=C1Nc2ccc(Br)cc2/C1=N/NC(=S)Nc1ccc(F)cc1` [drawing 22], the results for the IC50 in assay [1] (setting [4]) and in assay [2] (setting [5]) were 13.1 ± 4.8 µM and 5.8 ± 2.5 µM, respectively. Besides, the MDR1 selectivity in assay [2] (Table 1) was 2.3.

For `COc1ccc(NC(=S)NN=C2C(=O)Nc3ccccc32)cc1` [NSC73306, 1-Isatin-4-(4′ methoxyphenyl)thiosemicarbazone, reference compound], the IC50 in assay [1] (setting [3]) came out at 14.2 µM; in assay [2] (Table 2, unit inferred) it was 3.3 µM. Also, the “MDR1-inverse selectivity (in words)” value in assay [2] is on record as “MDR1-inverse selectivity”. Also, in assay [2] (Table 2), the MDR1 select. stood at 4.3.

`O=C1Nc2ccccc2C1=NNC(=S)Nc1cccc2ccccc12` [Compound M20, 1-isatin-4-(1′-napthyl)-3-thiosemicarbazone]: the IC50 in assay [1] (setting [3]) came out at 5.12 µM; in assay [2] (Table 2, unit inferred), 2.21 µM. For the same molecule, the MDR1 select. in assay [2] (Table 2) is 2.32.

With `O=C1Nc2ccccc2/C1=N/NC(=S)Nc1c(F)cc(F)cc1F` [Compound M13, 1-Isatin-4-(2′,4′,6′-trifluorophenyl)thiosemicarbazone], the concentration for half-maximal inhibition (IC50) stood at 38.4 µM in assay [1] (setting [6]) and 7.28 µM in assay [2] (setting [7]). In assay [2] (Table 2), the MDR1 select. was 5.27.

Regarding `COc1ccc(NC(=S)N/N=C2\C(=O)N(C)c3ccccc32)cc1` [Compound 8, 1-(N-methylisatin)-4-(4′-methoxyphenyl)-3-thiosemicarbazone], in assay [2], the “MDR1-inverse selectivity (in words)” value is recorded as “MDR1-inverse selectivity”.

As for `O=C1Nc2ccccc2C1=NNC(=S)Nc1ccccc1Cl` [Compound M5, 1-Isatin-(2′-chlorophenyl)-3-thiosemicarbazone], the IC50 is 2.22 µM in assay [1] (setting [3]) and 1.17 µM in assay [2] (Table 2, unit inferred). Further, the MDR1 select. in assay [2] (Table 2) is given as 1.89.

As to `O=C1Nc2ccccc2C1=O`, the IC50 in assay [1] (setting [4]) and in assay [2] (setting [5]) was over 50 µM each time.

For `COc1ccc(NC(=S)N/N=C2\C(=O)Nc3ccc(F)cc32)cc1` [Compound 7, 1-(5′-Fluoroisatin)-4-(4′-methoxyphenyl)-3-thiosemicarbazone], in assay [2], the “MDR1-inverse selectivity (in words)” value was “MDR1-inverse selectivity”.

Turning to `O=C1Nc2ccccc2C1=NNC(=S)Nc1ccc(C(F)(F)F)cc1` [Compound M9, 1-Isatin-4-(4′-(trifluoromethyl)phenyl)-3-thiosemicarbazone], the IC50 in assay [1] (setting [3]) is 8.59 µM; in assay [2] (Table 2, unit inferred) it was 2.1 µM. In addition, in assay [2] (Table 2), the MDR1 select. was 4.09.

Take `O=C1Nc2ccccc2C1=NNC(=S)Nc1ccccc1` [Compound M8, 1-Isatin-(phenyl)-3-thiosemicarbazone]: the IC50 in assay [1] (setting [3]) was found to be 3.53 µM; in assay [2] (Table 2, unit inferred), 1.47 µM. The MDR1 select. in assay [2] (Table 2) was 2.40.

As to `COc1ccc(NC(=S)N/N=C2\C(=O)Nc3ccc([N+](=O)[O-])cc32)cc1` [Compound 12, 1-(5′-Nitroisatin)-4-(4′-methoxyphenyl)-3-thiosemicarbazone], the “MDR1-inverse selectivity (in words)” value in assay [2] is “MDR1-inverse selectivity”.

Consider `C=CCNC(=S)N/N=C1\C(=O)Nc2ccccc21` [Compound 13, 1-Isatin-4-allyl-3-thiosemicarbazone], for which the “MDR1-inverse selectivity (in words)” value in assay [2] was “MDR1-inverse selectivity”.

On to `O=C1Nc2ccc(Br)cc2/C1=N/NC(=S)Nc1ccc(F)cc1` [NSC716771, 1-(5′-Bromoisatin)-4-(4′-fluorophenyl)-3-thiosemicarbazone], for which the “MDR1-inverse selectivity (in words)” value in assay [2] is “MDR1-inverse selectivity”.

`O=C1Nc2ccc([N+](=O)[O-])cc2C1=NNC(=S)Nc1ccccc1` [NSC716766, 1-(5′-Nitroisatin)-4-phenyl-3-thiosemicarbazone]: in assay [2], the “MDR1-inverse selectivity (in words)” value is “MDR1-inverse selectivity”.

For `O=C1Nc2ccc(Br)cc2/C1=N/NC(=S)Nc1ccc([N+](=O)[O-])cc1` [NSC716772, 1-(5′-Bromoisatin)-4-(4′-nitrophenyl)-3-thiosemicarbazone], the “MDR1-inverse selectivity (in words)” value in assay [2] is “MDR1-inverse selectivity”.
